Assay results taken from patent US4272541A, “7,8 and 7-8 Substituted 4,5α-epoxymorphinan-6-one compounds, and methods of treating pain and drug dependence with them” (Miles Laboratories, Inc., priority 1979, dated 1981).
Where a name gives a salt, the structure may show the parent alone. Read-outs that look alike come from different tables or passages of the source.

Columns and labels:
[1] = tested on: writhing; experiment: Acetic acid mouse writhing test (analgesic effects); type: in vivo, mice (male CD-1); conditions: for analgesic activity / analgesic/narcotic antagonist profile: in words; for analgesic/narcotic antagonist profile: from writhing ED50 and tail flick AD50 together
Method: (A) Analgesic effects upon mice (acetic acid writhing test).
TEST A. ACETIC ACID MOUSE WRITHING TEST
The analgesic effects of test compounds were determined in mice by use of the acetic acid writhing test described by B. J. R. Whittle, Brit. J. Pharmacol., 22:246 (1964). In this test at least three groups of five male CD-1 mice (18-22 g) each were given subcutaneous doses of the test drug dissolved in either distilled water or distilled water acidified with HCl depending on the solubility of the compound. In all cases, 0.4 milliliter of a 0.5% V/V acetic acid in distilled water solution was administered intraperitoneally 15 minutes post drug. The number of writhes in a 20 min. interval beginning 5 minutes after the acetic acid injection were determined and compared with the number of writhes in control groups which had received only acetic acid.
Percent inhibition of writhing was calculated as: [formula]
The ED50 dose, i.e., the dose required to reduce the number of writhes by 50%, was determined graphically from a plot of % inhibition as a probit versus log dose. Confidence limits of 95% were calculated on the basis of those results falling in the range 16-84% inhibition. See Litchfield, J. T. and Wilcoxon, F., J. Pharmacol. Exp. Ther., 96, 99-113, (1949).

[2] = tested on: morphine effect; experiment: Narcotic antagonist activity, modified rat tail flick test; type: in vivo, rats (male albino Wistar); conditions: for ED50: Rattus norvegicus, ip, read-out: AD50 (the source's name); for narcotic antagonist activity: in words
Method: (B) Narcotic antagonist activity in rats (modified rat tail flick test).
TEST B. EVALUATION OF NARCOTIC ANTAGONIST ACTIVITY
The narcotic antagonist effects of test compounds were determined by a modification of the rat tail flick procedure of Harris and Pierson (J. Pharmacol. Exp. Ther. 143,141 [1964]).
Male albino Wistar rats (100-120 g) were used for this study. A rat's tail is so placed so as to cover a photocell. Heat is applied by a lamp in a reflector with a timer being connected to the lamp and photocell so that the timer goes on when the light is turned on and is turned off when the photocell is uncovered. A rheostat, incorporated into a heating lamp is used to adjust the intensity of the light falling on the tail of the rat such that the rat's control reaction time is from two to four seconds. Animals with a control reaction time outside this range are rejected. The rheostat adjustment is made only if a significant proportion (more than 2 out of every 10 rats) of the reaction times are outside the range of two to four seconds. Groups of five rats were used each time, and two control times were determined at 60 and 30 minutes prior to subcutaneous injection of the drug.
Thirty minutes after the last control run the test drug was given intraperitoneally. This was followed ten minutes later by an ED80 dose of morphine subcutaneously. The animals were retested at 20 minutes after the morphine injection. Control animals were given vehicle and morphine only. The data were calculated as follows: [formula]
The data were plotted on log-probit paper and AD50 values, i.e., the dose required to inhibit the morphine effect by 50% within 95% confidence limits, were determined by the method of Litchfield and Wilcoxon.

[3] = Mus musculus, sc, 0.25 h, mice, subcutaneous, acetic acid i.p. 15 minutes post drug, Table I, read-out: ED50
[4] = rats, test drug i.p. 10 minutes before ED80 dose of morphine s.c., Table I
[5] = mice, subcutaneous, acetic acid i.p. 15 minutes post drug, Table I

For `COc1ccc2c3c1O[C@H]1C(=O)CC[C@H]4[C@@H](C2)N(CC2CC2)CC[C@]314` [TR-5095, 7,8-dihydro-17-cyclopropylmethylnorcodeinone, reference compound], the ED50 [1, 3] was 17 mg/kg and the ED50 [2, 4] was 3.4 mg/kg.

With `Br.COc1ccc2c3c1O[C@H]1C(=O)CC[C@H]4[C@@H](C2)N(CC2CCC2)CC[C@]314` [TR-5108, 17-Cyclobutylmethyl-4,5α-epoxy-3-methoxymorphinan-6-one Hydrobromide, reference compound] the ED50 [1, 3] was 8.8 mg/kg and the AD50 [2, 4] was “IA.3”.

For `CC[C@H]1CC(=O)[C@@H]2Oc3c(OC)ccc4c3[C@@]23CCN(CC2CC2)[C@H](C4)[C@H]13.Cl` [TR-5109, 17-Cyclopropylmethyl-4,5α-epoxy-8β-ethyl-3-methoxymorphinan-6-one Hydrochloride], the ED50 [1, 3] was 2.1 mg/kg, the analgesic activity [1] was “especially effective analgesics” and the ED50 [2, 4] was 0.78 mg/kg. For the same compound, the narcotic antagonist activity [2] was “especially effective narcotic antagonists”.

For `CC[C@H]1CC(=O)[C@@H]2Oc3c(O)ccc4c3[C@@]23CCN(CC2CCC2)[C@H](C4)[C@H]13` [TR-5115, 17-Cyclobutylmethyl-4,5α-epoxy-8β-ethyl-3-hydroxymorphinan-6-one], the ED50 [1, 3] was 9.2 mg/kg, the ED50 [2, 4] was 0.52 mg/kg and the narcotic antagonist activity [2] was “especially effective narcotic antagonists”.

With `CC[C@H]1CC(=O)[C@@H]2Oc3c(O)ccc4c3[C@@]23CCN(CC2CC2)[C@H](C4)[C@H]13` [TR-5126, 17-Cyclopropylmethyl-4,5α-epoxy-8β-ethyl-3-hydroxymorphinan-6-one] the ED50 [1, 3] was 7.8 mg/kg, the ED50 [2, 4] was 0.25 mg/kg and the narcotic antagonist activity [2] was “especially effective narcotic antagonists”.

With `C=CCN1CC[C@]23c4c5ccc(OC)c4O[C@H]2C(=O)C[C@H](CC)[C@H]3[C@H]1C5.Cl` [TR-5256, 17-Allyl-4,5α-epoxy-8β-ethyl-3-methoxymorphinan-6-one Hydrochloride] the analgesic/narcotic antagonist profile [1] was “some mixed analgesic narcotic antagonist activity but is not particularly potent in either respect” and the ED50 [2, 4] was 5.6 mg/kg.

For `C=CCN1CC[C@]23c4c5ccc(O)c4O[C@H]2C(=O)C[C@H](CC)[C@H]3[C@H]1C5.Cl` [TR-5266, 17-Allyl-4,5α-epoxy-8β-ethyl-3-hydroxymorphinan-6-one Hydrochloride], the analgesic activity [1] was “except for TR-5266 they demonstrate analgesic activity”, the ED50 [1, 5] was “IA 10” and the ED50 [2, 4] was 0.58 mg/kg. For the same compound, the narcotic antagonist activity [2] was “especially effective narcotic antagonists”.

For `CC[C@H]1CC(=O)[C@@H]2Oc3c(O)ccc4c3[C@@]23CCN(CC2CCCO2)[C@H](C4)[C@H]13.Cl` (stereo partly drawn) [TR-5271, 4,5α-Epoxy-8β-ethyl-3-hydroxy-17-tetrahydrofurfuryl-morphinan-6-one Hydrochloride], the ED50 [1, 3] was 1.06 mg/kg, the analgesic activity [1] was “especially effective analgesics” and the ED50 [2, 4] was 1.8 mg/kg.

With `COc1ccc2c3c1O[C@H]1C(=O)[C@@H](C)C[C@H]4[C@@H](C2)N(CC2CC2)CC[C@]314` [TR-5394, Hydrochloride] the ED50 [1, 5] was “IA 10” and the ED50 [2, 4] was 1.6 mg/kg.

With `C[C@H]1C[C@H]2[C@H]3Cc4ccc(O)c5c4[C@@]2(CCN3CC2CC2)[C@@H](O5)C1=O` [TR-5402, 17-Cyclopropylmethyl-4,5α-epoxy-3-hydroxy-7α-methylmorphinan-6-one] the ED50 [1, 3] was 0.42 mg/kg, the ED50 ([1]; Mus musculus, sc, agonist-antagonist potency, unit inferred, read-out: ED50) was 0.42 mg/kg and the analgesic/narcotic antagonist profile [1] was “mixed analgesics/narcotic antagonists”. For the same compound, the ED50 ([2]; agonist-antagonist potency, unit inferred) was 1.63 mg/kg.

Compound `COc1ccc2c3c1O[C@H]1C(=O)[C@@H](C)C[C@H]4[C@@H](C2)N(CC2CCC2)CC[C@]314.Cl` [TR-5403, 17-Cyclobutylmethyl-4,5α-epoxy-3-methoxy-7α-methylmorphinan-6-one Hydrochloride] has an ED50 [1, 3] of 9 mg/kg and an ED50 ([2]; rats, vs morphine, *Estimated) of 16.5 mg/kg.

`C[C@H]1C[C@H]2[C@H]3Cc4ccc(O)c5c4[C@@]2(CCN3CC2CCC2)[C@@H](O5)C1=O` [TR-5404, 17-Cyclobutylmethyl-4,5α-epoxy-3-hydroxy-7α-methylmorphinan-6-one Hydrochloride] showed an ED50 [1, 3] of 0.3 mg/kg and an ED50 [2, 4] of 13.2 mg/kg.

In the case of `COc1ccc2c3c1O[C@H]1C(=O)[C@@H](C)[C@H](C)[C@H]4[C@@H](C2)N(CC2CC2)CC[C@@]341` [TR-5410, 17-Cyclopropylmethyl-7α,8β-dimethyl-4,5-epoxy-3-methoxymorphinan-6-one Hydrochloride], the ED50 [1, 3] is reported as greater than 10 mg/kg and the ED50 [2, 4] is reported as 0.98 mg/kg.

With `C[C@@H]1[C@H]2[C@H]3Cc4ccc(O)c5c4[C@@]2(CCN3CC2CC2)[C@@H](O5)C(=O)[C@H]1C.Cl` [TR-5416, 17-Cyclopropylmethyl-7α,8β-dimethyl-4,5α-epoxy-3-hydroxymorphinan-6-one Hydrochloride] the analgesic/narcotic antagonist profile [1] was “pure narcotic antagonist”, the ED50 [1, 5] was “IA 10” and the ED50 [2, 4] was 0.57 mg/kg.

In the case of `CC[C@@H]1CC(=O)[C@@H]2Oc3c(OC)ccc4c3[C@@]23CCN(CC2CC2)[C@H](C4)[C@H]13.O=C(O)C(O)C(O)C(=O)O` [TR-5427, 17-Cyclopropylmethyl-4,5α-epoxy-8α-ethyl-3-methoxymorphinan-6-one Tartrate], the ED50 [1, 3] is reported as greater than 10 mg/kg and the ED50 [2, 4] is reported as greater than 10 mg/kg.

`CC[C@@H]1CC(=O)[C@@H]2Oc3c(OC)ccc4c3[C@@]23CCN(CC2CCC2)[C@H](C4)[C@H]13.O=C(O)C(O)C(O)C(=O)O` [TR-5428, 17-Cyclobutylmethyl-4,5α-epoxy-8α-ethyl-3-methoxymorphinan-6-one Tartrate] was tested, and the ED50 [1, 5] was “IA 10” and the AD50 [2, 4] was “IA 10”.

For `COc1ccc2c3c1O[C@H]1C(=O)[C@@H](C)[C@H](C)[C@H]4[C@@H](C2)N(CC2CCC2)CC[C@@]341` [TR-5429, 17-Cyclobutylmethyl-7α,8β-dimethyl-4,5α-epoxy-3-methoxymorphinan-6-one], the ED50 [1, 3] was greater than 10 mg/kg and the ED50 [2, 4] was roughly 10 mg/kg.

In the case of `C[C@@H]1[C@H]2[C@H]3Cc4ccc(O)c5c4[C@@]2(CCN3CC2CCC2)[C@@H](O5)C(=O)[C@H]1C` [TR-5430, 17-Cyclobutylmethyl-7α,8β-dimethyl-4,5α-epoxy-3-hydroxymorphinan-6-one], the ED50 [1, 3] is reported as 5.8 mg/kg, the analgesic/narcotic antagonist profile [1] is reported as “mixed analgesics/narcotic antagonists” and the ED50 [2, 4] is reported as 2.5 mg/kg.

`CC[C@@H]1CC(=O)[C@@H]2Oc3c(O)ccc4c3[C@@]23CCN(CC2CC2)[C@H](C4)[C@H]13.Cl` [TR-5436, 17-Cyclopropylmethyl-4,5α-epoxy-8α-ethyl-3-hydroxymorphinan-6-one Hydrochloride] was tested, and the ED50 [1, 3] was 0.36 mg/kg, the analgesic activity [1] was “strong analgesic” and the analgesic/narcotic antagonist profile [1] was “mixed analgesic/narcotic antagonist”. The ED50 [2, 4] was 4.1 mg/kg and the narcotic antagonist activity [2] was “also exhibits narcotic antagonist activity”.

For `CC[C@@H]1CC(=O)[C@@H]2Oc3c(O)ccc4c3[C@@]23CCN(CC2CCC2)[C@H](C4)[C@H]13.Cl` [TR-5437, 17-Cyclobutylmethyl-4,5α-epoxy-8α-ethyl-3-hydroxymorphinan-6-one Hydrochloride], the ED50 [1, 3] was 0.15 mg/kg, the analgesic/narcotic antagonist profile [1] was “pure analgesic” and the ED50 [2, 4] was greater than 10 mg/kg.
